Here are results for 25 compounds from patent US20090048258A1, “Amide Compound” (priority 2005, published 2009).

Structures are written as SMILES. pIC50: −log10 of the molar value. Where only a bound is given, the exact number is not on record here.

The target of the first assay is T1, Human DGAT1 (Homo sapiens, UniProt O75907).
T1 construct: my translation of the primer: M-G-DYKDDDD-GDRGSSRRR) (N); made in house; host or cells: Sf9 insect cells (recombinant baculovirus BAC-DGAT1, pFASTBAC1); microsome fraction
T1 sequence (O75907 1-488): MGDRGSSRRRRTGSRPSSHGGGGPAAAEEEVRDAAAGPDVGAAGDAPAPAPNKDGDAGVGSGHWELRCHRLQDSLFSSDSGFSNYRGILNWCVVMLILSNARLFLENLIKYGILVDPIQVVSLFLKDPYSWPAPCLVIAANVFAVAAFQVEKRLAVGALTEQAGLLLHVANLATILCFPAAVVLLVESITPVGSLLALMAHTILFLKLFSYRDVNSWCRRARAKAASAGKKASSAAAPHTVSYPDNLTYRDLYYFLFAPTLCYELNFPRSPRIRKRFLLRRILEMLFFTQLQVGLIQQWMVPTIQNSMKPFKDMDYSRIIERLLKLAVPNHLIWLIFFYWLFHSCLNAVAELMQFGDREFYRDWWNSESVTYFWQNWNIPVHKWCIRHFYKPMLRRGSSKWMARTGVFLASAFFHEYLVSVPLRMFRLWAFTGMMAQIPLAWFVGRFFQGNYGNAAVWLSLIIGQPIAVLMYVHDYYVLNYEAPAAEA
Briefly: DGAT inhibitory activity: [14C]-triglyceride synthesis by DGAT1 high expression Sf9 microsome. Conditions: Table 1, 25 μM dioleoylglycerol, 25 μM [14C]-Oleoyl-CoA, 32° C., 15 min, read-out: DGAT inhibitory activity (according to IC50). The class given is biochemical. On the procedure: The primer base sequence is shown below.
The PCR reaction was conducted using a KOD-plus kit (TOYOBO). The obtained PCR product was electrophoresed on agarose gel (1%), the DNA fragment amplified by PCR was recovered from the gel, and then digested with restriction enzymes EcoRI and SpeI. […] Furthermore, using BAC-TO-BAC Baculovirus Expression System (Invitrogen), recombinant baculovirus BAC-DGAT1 was prepared.
SF9 cells were sown at 1×10^6 cells/ml on Sf-900II SEM medium (1 L, Invitrogen) containing 10% fetal calf serum (Trace), 50 mg/L gentamicin (Invitrogen) and 0.1% Pluronic F-68 (Invitrogen), and shaking culture was performed using a 2 L volume Erlenmeyer at 27° C., 100 rpm. After culturing for 24 hr, recombinant baculovirus BAC-DGAT1 (6.7 mL) was added, and the mixture was further cultured for 3 days. The culture medium was centrifuged at 2,000 rpm for 5 min to give virus-infected cells. The infected cells were washed with a phosphate buffered saline (Invitrogen), centrifuged under the same conditions, and the cells were preserved at −80° C. The cryopreserved cells were thawed in ice, suspended in buffer A (50 mM Tris buffer (30 mL, pH 7.4) containing 20% glycerol, 0.15 M NaCl) supplemented with Complete Protease Inhibitor (Boehringer), and ruptured 3 times with a Polytron homogenizer (Kinematica) at 20,000 rpm for 30 sec. The Sf9 microsome fractions were obtained by a conventional method and cryopreserved at −80° C. as a DGAT1 high expression Sf9 microsome.
As a DGAT1 reaction buffer, a solution having a composition of 100 mM Tris-HCl (pH 7.5), 250 mM sucrose, 150 mM MgCl2, 0.01% bovine serum albumin (BSA) was used. […] A mixture of 300 μL of chloroform:methanol (=1:2) was added to the reaction mixture to quench the reaction. The reaction mixture was sufficiently mixed and saline (200 μL) was added to partition the mixture between a chloroform layer (lower layer) and an aqueous layer (upper layer). The chloroform layer (50 μL) was spotted on a thin layer chromatography silica gel plate (TLC plate, Merck) and developed with a solvent (n-hexane:diethyl ether:ethyl acetate:acetic acid=74:15:15:1). The developed TLC plate was dried, contacted with a BAS imaging plate (manufactured by FUJIFILM) and measured with BAS2500 (manufactured by FUJIFILM) 16 hr later to numerically show the amount of [^14C]-triglyceride (TG amount) produced during the reaction. The inhibitory rate was calculated by the following formula:
Inhibitory rate (%)=(1−(TG amount in the case with addition of test compound−blank TG amount)/(control TG amount−blank TG amount))×100
The count of the triglyceride produced in the solution reacted without addition of the test compound was used as a “control TG amount”, and the count of the triglyceride produced in the solution reacted without addition of the test compound and DGAT1 high expression Sf9 microsome was used as a “blank TG amount”.
Regarding `CCOc1ccc(C(=O)CCC(=O)Nc2cc(-c3ccc(O)cc3)c3ccccc3n2)cc1OCC` [Example 22, 4-(3,4-diethoxyphenyl)-N-[4-(4-hydroxyphenyl)quinolin-2-yl]-4-oxobutanamide], the pIC50 was at least 8.00. Still for that read-out and setting: the figure for `CCOc1ccc(C(=O)NCCNC(=O)c2cc(-c3ccccc3)n(Cc3ccccc3)c2C)cc1` [Example 63, 1-benzyl-N-{2-[(4-ethoxybenzoyl)amino]ethyl}-2-methyl-5-phenyl-1H-pyrrole-3-carboxamide] is 6.30 to 7.30; for `COc1cc2c(cc1OC)C(=O)[C@H](CC(=O)Nc1nc(-c3ccccc3)c(Cc3ccccc3)s1)C2` (stereo in doubt) [Example 6, N-(5-benzyl-4-phenyl-1,3-thiazol-2-yl)-2-(5,6-dimethoxy-1-oxo-2,3-dihydro-1H-inden-2-yl)acetamide] it is 7.30 to 8.00. On the same count and under the same terms, next, `CCOc1ccc(C(=O)CCC(=O)Nc2cc(-c3ccc(OCC(=O)O)cc3)c3ccccc3n2)cc1OCC` [Example 23, [4-(2-{[4-(3,4-diethoxyphenyl)-4-oxobutanoyl]amino}quinolin-4-yl)phenoxy]acetic acid]: 5.00 to 6.30.

Take `CCOc1ccc(C(=O)CCC(=O)Nc2nc(-c3ccccc3)c(Cc3ccccc3)s2)cc1OCC` [Example 3, N-(5-benzyl-4-phenyl-1,3-thiazol-2-yl)-4-(3,4-diethoxyphenyl)-4-oxobutanamide]: the pIC50 was at least 8.00. `CCOc1ccc(C(=O)CCC(=O)Nc2cc(-c3ccccc3)sc2-c2ccccc2)cc1` [Example 60, N-(2,5-diphenyl-3-thienyl)-4-(4-ethoxyphenyl)-4-oxobutanamide]: the pIC50 was 5.00 to 6.30.

Consider `O=C(CCC(=O)c1ccc2c(c1)CCO2)Nc1nc(-c2ccccc2)c(Cc2ccccc2)s1` [Example 27, N-(5-benzyl-4-phenyl-1,3-thiazol-2-yl)-4-(2,3-dihydro-1-benzofuran-5-yl)-4-oxobutanamide], for which the pIC50 is at least 8.00.

The assay is the same for the next values; noted with them: Table 2, 25 μM dioleoylglycerol, 25 μM [14C]-Oleoyl-CoA, 32° C., 15 min, read-out: DGAT inhibitory activity (according to IC50).
`CCCCc1ccc(C(=O)c2sc(NC(=O)CCC(=O)c3cc(OCC)c(OCC)cc3C)nc2-c2ccccc2)cc1` [Example 69, N-[5-(4-butylbenzoyl)-4-phenyl-1,3-thiazol-2-yl]-4-(4,5-diethoxy-2-methylphenyl)-4-oxobutanamide]: the pIC50 is 6.30 to 7.30. Still for that read-out and setting: next, `CCc1ccc(C(=O)CCC(=O)Nc2nc(-c3ccccc3)c(Cc3ccccc3)s2)s1` [Example 72, N-(5-benzyl-4-phenyl-1,3-thiazol-2-yl)-4-(5-ethyl-2-thienyl)-4-oxobutanamide]: 7.30 to 8.00; `CCOc1ccc(C(=O)CCC(=O)Nc2cc(-c3ccccc3CO)cc(-c3ccccc3)n2)cc1OCC` [Example 147, 4-(3,4-diethoxyphenyl)-N-{4-[2-(hydroxymethyl)phenyl]-6-phenylpyridin-2-yl}-4-oxobutanamide]: at least 8.00; `CCOc1ccc(C(=O)CCC(=O)Nc2cc(-c3ccc(O)c(OC)c3)cc(-c3ccccc3)n2)cc1OCC` [Example 149, 4-(3,4-diethoxyphenyl)-N-[4-(4-hydroxy-3-methoxyphenyl)-6-phenylpyridin-2-yl]-4-oxobutanamide]: 7.30 to 8.00. The same measure, in the same setting: the figure for `CCOc1ccc(C(=O)CCC(=O)Nc2cc(-c3ccccc3)cc(-c3ccccc3)n2)cc1` [Example 102, N-(4,6-diphenylpyridin-2-yl)-4-(4-ethoxyphenyl)-4-oxobutanamide] is 6.30 to 7.30; for `CCOc1ccc(C(=O)CCC(=O)Nc2cc(-c3ccc(C(=O)OC)cc3)cc(-c3ccccc3)n2)cc1OCC` [Example 112, methyl 4-(2-{[4-(3,4-diethoxyphenyl)-4-oxobutanoyl]amino}-6-phenylpyridin-4-yl)benzoate] it is 5.00 to 6.30; for `O=C(O)/C=C/c1cccc(-c2cc(NC(=O)CCC(=O)c3ccc4c(c3)CCO4)nc(-c3ccccc3)c2)c1` [Example 174, (2E)-3-[3-(2-{[4-(2,3-dihydro-1-benzofuran-5-yl)-4-oxobutanoyl]amino)-6-phenylpyridin-4-yl)phenyl]acrylic acid] it is 5.00 to 6.30.

In the case of `CCOc1ccc(C(=O)CCC(=O)Nc2cc(-c3ccc4c(c3)OCO4)cc(-c3ccccc3)n2)cc1OCC` [Example 120, N-[4-(1,3-benzodioxol-5-yl)-6-phenylpyridin-2-yl]-4-(3,4-diethoxyphenyl)-4-oxobutanamide], the pIC50 is 6.30 to 7.30. Still for that read-out and setting: next, `CCOc1ccc(C(=O)CCC(=O)Nc2cc(-c3ccccc3O)cc(-c3ccccc3)n2)cc1OCC` [Example 145, 4-(3,4-diethoxyphenyl)-N-[4-(2-hydroxyphenyl)-6-phenylpyridin-2-yl]-4-oxobutanamide]: at least 8.00.

Turning to `O=C(CCC(=O)c1ccc2c(c1)CCO2)Nc1cc(-c2cccc(CCCO)c2)cc(-c2ccccc2)n1` [Example 168, 4-(2,3-dihydro-1-benzofuran-5-yl)-N-{4-[3-(3-hydroxypropyl)phenyl]-6-phenylpyridin-2-yl}-4-oxobutanamide], the pIC50 was 6.30 to 7.30. `CCOC(=O)c1c(NC(=O)CCC(=O)c2ccc(OCC)c(OCC)c2)sc(Cc2ccccc2)c1-c1ccccc1` [Example 96, ethyl 5-benzyl-2-{[4-(3,4-diethoxyphenyl)-4-oxobutanoyl]amino}-4-phenylthiophene-3-carboxylate]: the pIC50 was 6.30 to 7.30. The same measure, in the same setting: the figure for `COc1cc(-c2cc(NC(=O)CCC(=O)c3ccc4c(c3)CCO4)nc(-c3ccccc3)c2)ccc1O` [Example 181, 4-(2,3-dihydro-1-benzofuran-5-yl)-N-[4-(4-hydroxy-3-methoxyphenyl)-6-phenylpyridin-2-yl]-4-oxobutanamide] is 7.30 to 8.00; for `CN(C)c1ccc(-c2cc(NC(=O)CCC(=O)c3ccc4c(c3)CCO4)nc(-c3ccccc3)c2)cc1` [Example 162, 4-(2,3-dihydro-1-benzofuran-5-yl)-N-{4-[4-(dimethylamino)phenyl]-6-phenylpyridin-2-yl}-4-oxobutanamide] it is 6.30 to 7.30; for `CCOc1ccc(C(=O)CCC(=O)Nc2cc(-c3ccoc3)cc(-c3ccccc3)n2)cc1OCC` [Example 117, 4-(3,4-diethoxyphenyl)-N-[4-(3-furyl)-6-phenylpyridin-2-yl]-4-oxobutanamide] it is 6.30 to 7.30. The same measure, in the same setting: the figure for `CCOc1ccc(C(=O)CCC(=O)Nc2cc(-c3ccc(OCCN)cc3)c3ccccc3n2)cc1OCC` [Example 94, N-{4-[4-(2-aminoethoxy)phenyl]quinolin-2-yl}-4-(3,4-diethoxyphenyl)-4-oxobutanamide] is 6.30 to 7.30; for `COc1ccccc1-c1cc(NC(=O)CCC(=O)c2ccc3c(c2)CCO3)nc(-c2ccccc2)c1` [Example 178, 4-(2,3-dihydro-1-benzofuran-5-yl)-N-[4-(2-methoxyphenyl)-6-phenylpyridin-2-yl]-4-oxobutanamide] it is 7.30 to 8.00. On the same count and under the same terms, next, `O=C(CCC(=O)c1ccc2c(c1)CCO2)Nc1cc(-c2ccoc2)cc(-c2ccccc2)n1` [Example 115, 4-(2,3-dihydro-1-benzofuran-5-yl)-N-[4-(3-furyl)-6-phenylpyridin-2-yl]-4-oxobutanamide]: 6.30 to 7.30; `CCOc1ccc(C(=O)CCC(=O)Nc2cc(-c3ccc(C(N)=O)cc3)cc(-c3ccccc3)n2)cc1OCC` [Example 128, 4-(2-{[4-(3,4-diethoxyphenyl)-4-oxobutanoyl]amino}-6-phenylpyridin-4-yl)benzamide]: 7.30 to 8.00.
